# Data: US20030022820A1, “IN VIVO ACTIVATION OF TUMOR-SPECIFIC CYTOTOXIC T CELLS” (priority 1995, published 2003)
# How the values were obtained:
# [1] = test system: A2.1/K^b×CD8 or A2.1 transgenic (Tg) mice; test: Immunization of transgenic mice with Her-2/neu peptides, cytotoxicity against peptide-pulsed T2-A2.1/K^b; type: in vivo; details: A2.1/K^b×CD8 or A2.1 Tg mice
# Description: A2.1/K^b×CD8 and/or A2.1 transgenic mice were immunized with each of the peptides listed in Table 6 to determine if they could stimulate A2.1-restricted CTL. Mice were immunized with a mixture of 100 mg of the Her-2/neu peptide with 120 mg “helper” peptide in 100 ml Incomplete Freund's Adjuvant (IFA).
# A2.1/K^b×CD8 or A2.1 lipopolysaccharide (LPS) -blasts were prepared as stimulators for in vitro restimulation of spleen cells from immunized mice. These were prepared by incubating splenocytes from A2/K^b or A2.1 mice in complete RPMI containing 25 mg/ml LPS and 7 mg/ml dextran sulfate at 1.5×10^6 cells/ml in a total volume of 30 ml for 3 days. […] Six days following in vitro restimulation, the CTL populations were assayed for lytic activity against T2-A2/K^b target cells preincubated with the peptide used for stimulation (15 mM). The resultant Her-2/neu peptide-specific CTL populations were maintained in vitro by weekly restimulation. […]
# Spleen cells from injected animals were restimulated in vitro with irradiated syngeneic cells pulsed with the peptide used for in vivo priming. Immunogenicity was evaluated by assaying these cultured cells for cytotoxicity against T2-A2.1/K^b target cells pulsed with the priming peptide. […]
# BT549 = test: Cytotoxicity assay, lysis of human tumors by H3 and H7 specific CTL; type: cell-based; details: Breast, A2 +
# Description: (§1) […] target cells were incubated at 37° C. with […] of sodium ^51Cr chromate for 90 minutes in the presence or absence of specific peptide. Cells were washed three times and resuspended in 5% RPMI. For the assay, […] ^51Cr-labeled target cells were incubated with different concentrations of effector cells in a final volume of […] in U-bottomed 96-well plates. Supernatants were removed after 4-7 hrs at 37° C., and the percent specific lysis was determined by the following formula: [formula]
# (§2) Tumor cells were preincubated for 24 hours prior to the assay in media supplemented with γ-interferon (γ-IFN, 20 ng/ml) plus tumor necrosis factor-α (TNF-α, 3 ng/ml). It is known that such pretreatment of tumor cells increases the expression of MHC I and adhesion molecules such as ICAM I on the surface of the cell thus enhancing their sensitivity to lysis by CTL. (See, e.g., Fisk, et al., Lympho. & Cytokine Res. 13: 125-131 (1994); Fady, et al., Cancer Immunol. Immunother. 37: 329-336 (1993).)
# CASKI = test: as above; type: cell-based; details: Cervix, A2 +, Her-2 +
# Description: as §1, §2
# Hep-G2 = test: as above; type: cell-based; details: Hepatoma, A2 +
# Description: as §1, §2
# LG-2 = test: as above; type: cell-based; details: EBV-trans., A2 +, Her-2 −
# Description: as §1, §2
# MCF-7 = test: as above; type: cell-based; details: Breast, A2 +
# Description: as §1, §2
# MDA.M8231 = test: as above; type: cell-based; details: Breast, A2 +
# Description: as §1, §2
# NCI.H1355 = test: as above; type: cell-based; details: Lung, A2 +
# Description: as §1, §2
# OVCAR-5 = test: as above; type: cell-based; details: Ovarian, A2 +, Her-2 +
# Description: as §1, §2
# SAOS.175 = test: as above; type: cell-based; details: Osteosarcoma, A2 +, Her-2 +
# Description: as §1, §2
# SKMEL-5 = test: as above; type: cell-based; details: Melanoma, A2 +, Her-2 +
# Description: as §1, §2
# ST486 = test: as above; type: cell-based; details: Lymphoma, A2 +, Her-2 −
# Description: as §1, §2
# SV80 = test: as above; type: cell-based; details: Fibroblast, A2 +, Her-2 −
# Description: as §1, §2
# SW480 = test: as above; type: cell-based; details: Colon, A2 +
# Description: as §1, §2
# T98G = test: as above; type: cell-based; details: Glioblastoma, A2 +, Her-2 +
# Description: as §1, §2
# U2-OS = test: as above; type: cell-based; details: Osteosarcoma, A2 +, Her-2 +
# Description: as §1, §2
# U87G = test: as above; type: cell-based; details: Glioblastoma, A2 +
# Description: as §1, §2
# JY = test: as above; type: cell-based; parameters: scale not given here; details: Lymphoma, A2 +, Her-2 −
# Description: as §1, §2
# MALME-3M = test: as above; type: cell-based; parameters: scale not given here; details: Melanoma, A2 +, Her-2 +
# Description: as §1, §2
# MDA.MB435 = test: as above; type: cell-based; parameters: scale not given here; details: Breast, A2 −, Her-2 +
# Description: as §1, §2
# [2] = + CYT (γ-IFN 20 ng/ml plus TNF-α 3 ng/ml, 24 hours)
sequence,measurement,setting,value
VMAGVGSPYV [Peptide H7],"ability to stimulate a CTL response in Tg mice, in words",[1],able to stimulate a CTL response
same,Killing of Tumors Expressing Her-2/neu,BT549; [2],36
same,Killing of Tumors Expressing Her-2/neu,BT549; without cytokines,2
same,Killing of Tumors Expressing Her-2/neu,CASKI; [2],20
same,Killing of Tumors Expressing Her-2/neu,CASKI; without cytokines,9
same,Killing of Tumors Expressing Her-2/neu,Hep-G2; [2],29
same,Killing of Tumors Expressing Her-2/neu,Hep-G2; without cytokines,4
same,Killing of Tumors Expressing Her-2/neu,LG-2; [2],3
same,Killing of Tumors Expressing Her-2/neu,LG-2; without cytokines,1
same,Killing of Tumors Expressing Her-2/neu,MCF-7; [2],40
same,Killing of Tumors Expressing Her-2/neu,MCF-7; without cytokines,7
same,Killing of Tumors Expressing Her-2/neu,MDA.M8231; [2],89
same,Killing of Tumors Expressing Her-2/neu,MDA.M8231; without cytokines,26
same,Killing of Tumors Expressing Her-2/neu,NCI.H1355; [2],62
same,Killing of Tumors Expressing Her-2/neu,NCI.H1355; without cytokines,13
same,Killing of Tumors Expressing Her-2/neu,OVCAR-5; [2],23
same,Killing of Tumors Expressing Her-2/neu,OVCAR-5; without cytokines,13
same,Killing of Tumors Expressing Her-2/neu,SAOS.175; [2],35
same,Killing of Tumors Expressing Her-2/neu,SAOS.175; without cytokines,27
same,Killing of Tumors Expressing Her-2/neu,SKMEL-5; [2],40
same,Killing of Tumors Expressing Her-2/neu,SKMEL-5; without cytokines,16
same,Killing of Tumors Expressing Her-2/neu,ST486; [2],8
same,Killing of Tumors Expressing Her-2/neu,ST486; without cytokines,5
same,Killing of Tumors Expressing Her-2/neu,SV80; [2],2
same,Killing of Tumors Expressing Her-2/neu,SV80; without cytokines,2
same,Killing of Tumors Expressing Her-2/neu,SW480; [2],17
same,Killing of Tumors Expressing Her-2/neu,SW480; without cytokines,2
same,Killing of Tumors Expressing Her-2/neu,T98G; [2],93
same,Killing of Tumors Expressing Her-2/neu,T98G; without cytokines,29
same,Killing of Tumors Expressing Her-2/neu,U2-OS; [2],62
same,Killing of Tumors Expressing Her-2/neu,U2-OS; without cytokines,30
same,Killing of Tumors Expressing Her-2/neu,U87G; [2],1
same,Killing of Tumors Expressing Her-2/neu,U87G; without cytokines,1
same,Killing of Tumors Expressing Her-2/neu,JY; [2],2
same,Killing of Tumors Expressing Her-2/neu,JY; without cytokines,4
same,Killing of Tumors Expressing Her-2/neu,MALME-3M; [2],14
same,Killing of Tumors Expressing Her-2/neu,MALME-3M; without cytokines,4
same,Killing of Tumors Expressing Her-2/neu,MDA.MB435; [2],1
same,Killing of Tumors Expressing Her-2/neu,MDA.MB435; without cytokines,1
